This is an account of results in paper PMC11640836, “Aminomethylmorpholino Nucleosides as Novel Inhibitors of PARP1 and PARP2: Experimental and Molecular Modeling Analyses of Their Selectivity and Mechanism of Action” (International Journal of Molecular Sciences, 2024).

Experiment [1] concerns the target T1, PARP1-DNA complex (Homo sapiens, UniProt P09874).
T1 construct: made in house; host or cells: insect cells
Description: AutoPARylation-induced dissociation of the PARP1-DNA complex (fluorescence anisotropy kinetics). Format: biochemical. To be noted: 120 µM H2N-Mor-T or 400 nM olaparib. How it is done:
(§1) Fluorescence anisotropy measurements of FAM-labeled DNA were performed in the absence and presence of various concentrations of PARP1/PARP2 with or without sub-saturating concentrations of an inhibitor. […] The averaged values were used for the final plot, and EC50 values were determined with MARS Data Analysis software version 3.00 (BMG LABTECH, Ortenberg, Germany). The data were plotted (F vs. C) and fitted to a four-parameter equation, F = F0 + (F∞ − F0)/[1 + (EC50/C)^n], where F is the measured fluorescence anisotropy of a solution containing the labeled DNA at a given concentration (C) of protein, F0 is the fluorescence anisotropy of the solution of the labeled DNA alone, F∞ is the fluorescence anisotropy of the labeled DNA saturated with the protein, EC50 is the concentration of the protein where F − F0 = (F∞ − F0)/2, and n is the Hill coefficient, which denotes the slope of the nonlinear curve. The apparent rate constants (kobs values) of dissociation of the PARP1 (PARP2)-DNA complex during the PARylation reaction performed in the absence or presence of an inhibitor were estimated by fluorescence anisotropy measurements, as described previously. […] The kinetic data were fitted to an exponential curve to calculate kobs with MARS Data Analysis software. […]

Experiment [2] deals with T1, PARP1-DNA complex. Description: Fluorescence anisotropy titration of FAM-labeled gap-DNA with PARP1. The experiment is classed as binding. The settings on record: 120 µM inhibitor, absence vs presence. Here is the method: as §1
The target in experiment [3] is T2, PARP1 (Homo sapiens, UniProt P09874).
T2 construct: made in house; host or cells: insect cells
T2 sequence (P09874 whole entry): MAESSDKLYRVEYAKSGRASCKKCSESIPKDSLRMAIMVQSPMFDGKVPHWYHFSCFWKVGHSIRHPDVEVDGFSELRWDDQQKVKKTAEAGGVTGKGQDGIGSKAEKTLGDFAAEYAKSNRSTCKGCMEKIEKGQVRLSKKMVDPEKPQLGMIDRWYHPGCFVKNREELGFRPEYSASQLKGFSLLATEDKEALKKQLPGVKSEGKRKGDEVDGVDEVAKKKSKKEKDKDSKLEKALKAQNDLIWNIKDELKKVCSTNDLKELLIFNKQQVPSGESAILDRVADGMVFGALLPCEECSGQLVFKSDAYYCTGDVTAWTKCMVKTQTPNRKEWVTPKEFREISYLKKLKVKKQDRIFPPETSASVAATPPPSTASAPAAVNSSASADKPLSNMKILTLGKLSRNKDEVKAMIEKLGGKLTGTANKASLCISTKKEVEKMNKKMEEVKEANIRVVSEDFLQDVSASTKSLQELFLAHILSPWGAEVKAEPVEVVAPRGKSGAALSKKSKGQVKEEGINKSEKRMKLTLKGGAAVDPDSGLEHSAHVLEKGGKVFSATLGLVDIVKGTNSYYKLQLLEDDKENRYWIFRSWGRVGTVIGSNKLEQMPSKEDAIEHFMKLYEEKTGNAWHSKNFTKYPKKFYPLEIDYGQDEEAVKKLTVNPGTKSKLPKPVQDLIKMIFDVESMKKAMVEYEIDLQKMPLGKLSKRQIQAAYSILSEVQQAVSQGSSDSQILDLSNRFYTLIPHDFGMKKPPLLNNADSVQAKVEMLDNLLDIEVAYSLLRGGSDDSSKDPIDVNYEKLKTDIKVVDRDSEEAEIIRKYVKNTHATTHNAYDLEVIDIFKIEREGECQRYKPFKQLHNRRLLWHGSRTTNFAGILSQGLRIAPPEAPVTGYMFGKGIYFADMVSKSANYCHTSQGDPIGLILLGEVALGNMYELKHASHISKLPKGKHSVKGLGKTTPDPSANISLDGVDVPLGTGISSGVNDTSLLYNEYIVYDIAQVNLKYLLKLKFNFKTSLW
Description: Steady-state kinetic analysis of the PARP1 enzymatic reaction. The experiment is classed as biochemical. To be noted: for Type of inhibition: Vmax decreased, KM increased. Here is the method: (§2) The four efficient inhibitors of PARP1 (compounds 8, 12, 13, and 14) were further examined by detailed kinetic experiments to determine the type of inhibition and the inhibition constants. […] The kinetics experiments of the PARylation reaction were performed at varied concentrations of the NAD^+ substrate and three–four different fixed concentrations of the inhibitor. The kinetic parameters of the reaction (Vmax and KM) were calculated by fitting the Michaelis–Menten equation to the kinetic data. The type of inhibition was determined by analyzing the dependences of Vmax and KM on the concentration of the inhibitor in linearizing coordinates (Figure S3). All the compounds had decreased Vmax and increased KM values as the inhibitor concentration increased (panels A−E), indicating a mixed type of inhibition, which was further evidenced by the double reciprocal plots of kinetic data (panel F). From these experiments, the inhibition constants reflecting the affinity of inhibitors to the NAD^+ binding pocket of free enzymes were determined (Table 2).
(§3) To determine the apparent maximum rate of enzymatic reaction (Vmax), Michaelis constant (KM), and possible inhibition mechanism, steady-state kinetic experiments were performed at […] fixed concentrations of the substrate, in the absence and presence of different fixed concentrations of the inhibitor. The standard reaction mixtures (10 μL) contained 100 μM, 300 μM, 500 μM, 1 mM, or 2 mM NAD^+; a tested PARP1/PARP2 inhibitor specified for each compound (Figure S3); the recombinant human enzyme PARP1 (200 nM) or murine PARP2 (800 nM); and reaction buffer components (specified in the previous subsection). The reaction was performed as described in the previous subsection. The raw data (kinetic curves) were obtained in three independent experiments and statistically processed with OriginPro 8.6.0 software. […]
F) Graphical representation in double reciprocal plots. The inhibitor concentrations (µM) are indicated right to each panel.
Figure S3. Graphical representation of inhibition type determination for PARP1 and PARP2 with selected compounds.
The Ki and Ki(2) values presented in Table 2 in the main text and Table S1 were calculated using the equations:
Ki = Ci⁄ Ki (2) = CiV Vmax ∗ൗ−1
ቂ(Vmax Km )൘ቃ(Vmax ∗ Km ∗)⁄ −1 where Vmax (Vmax*) – maximal reaction velocity in th e absence (presence) of inhibitor; Km (Km*) – Michaelis constant in the absence (presence) of inhibitor; Ci – the inhibitor concentration.
(also on this page, place not known: Ci )⁄ (Vmax ∗ )⁄൘ቃ − Ki(2) Ci V ∗ൗ− 1 the Vmax KM 3000 0 1 0 250 [ 32 P]ADP-ribose, counts x 10 -3 NAD + ,)
(1 picture or pasted object on this page, not shown here)

Experiment [4] addresses T3, PARP2 (Mus musculus, UniProt O88554).
T3 construct: made in house; host or cells: insect cells
Briefly: Steady-state kinetic analysis of the PARP2 enzymatic reaction. Format: biochemical, murine. Here is the method: as §2, §3
F) Graphical representation in double reciprocal plots. […]
The Ki and Ki(2) values presented in Table 2 in the main text and Table S1 were calculated using the equations: […]

Experiment [5] concerns the target T4, PARP2-DNA complex (Mus musculus, UniProt O88554).
T4 construct: made in house; host or cells: insect cells
Description: Fluorescence anisotropy titration of FAM-labeled gap-DNA with PARP2. Format: binding, murine. To be noted: 240 µM inhibitor. Here is the method:
as §1

Experiment [6] addresses T4, PARP2-DNA complex. Briefly: AutoPARylation-induced dissociation of the PARP2-DNA complex (fluorescence anisotropy kinetics). The settings on record: 240 µM H2N-Mor-U(I) or 800 nM olaparib. The experiment is classed as biochemical, murine. How it is done:
as §1

Where [7] appears, read: mixed-type inhibition, read-out: Ki (affinity for the free enzyme).
The mark [8] stands for this setting: read-out: Ki(2) (affinity for the enzyme complex with NAD+ substrate).

The structures appear in SMILES notation. Like-named read-outs stand apart in the source and are kept apart here.

T4 sequence (O88554 whole entry, one chain of several): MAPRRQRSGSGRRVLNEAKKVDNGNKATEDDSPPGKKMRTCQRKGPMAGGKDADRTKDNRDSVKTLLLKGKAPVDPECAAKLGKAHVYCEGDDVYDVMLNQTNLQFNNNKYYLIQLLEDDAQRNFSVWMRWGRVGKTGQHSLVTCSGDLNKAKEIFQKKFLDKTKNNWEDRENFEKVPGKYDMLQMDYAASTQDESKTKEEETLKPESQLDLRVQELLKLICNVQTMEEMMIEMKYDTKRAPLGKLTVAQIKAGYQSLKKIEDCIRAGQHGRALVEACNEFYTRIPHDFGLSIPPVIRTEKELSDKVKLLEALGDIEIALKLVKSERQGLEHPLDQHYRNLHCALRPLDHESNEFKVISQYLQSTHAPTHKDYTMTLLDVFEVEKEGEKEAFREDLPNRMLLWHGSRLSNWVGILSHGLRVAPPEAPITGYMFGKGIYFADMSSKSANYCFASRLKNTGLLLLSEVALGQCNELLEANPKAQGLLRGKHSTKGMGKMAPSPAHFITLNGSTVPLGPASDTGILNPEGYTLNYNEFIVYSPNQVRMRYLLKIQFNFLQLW
T3 sequence (O88554 whole entry): as the sequence (O88554 whole entry, one chain of several) above
T1 sequence (P09874 whole entry, one chain of several): as the sequence (P09874 whole entry) above

Take `Cc1cn([C@H]2CNC[C@@H](CN)O2)c(=O)[nH]c1=O` [Compound 8]: the “Inhibition of dissociation of the PARP1 complex with DNA” value in experiment [1] (0.4 mM NAD+) is ~ 2 fold; in experiment [1] (1.4 mM NAD+), ~ 1.5 fold. For the same compound, the “Effect of inhibitor on EC50 of the PARP1–DNA complex” value in experiment [2] was “almost the same”. Moreover, the Type of inhibition entry in experiment [3] is reported as “mixed-type inhibition”. The Ki stood at 12 ± 2 µM in experiment [3] (setting [7]) and 40 ± 8 µM in experiment [3] (setting [8]).
With `NC[C@@H]1CNC[C@H](n2cc(I)c(=O)[nH]c2=O)O1` [Compound 14], the Type of inhibition entry is reported as “mixed-type inhibition” in experiment [4] (Vmax decreased, KM increased) and “mixed-type inhibition” in experiment [3]. In addition, the Ki in experiment [4] (setting [7]) was 120 ± 23 µM; in experiment [4] (setting [8]) it was 400 ± 70 µM; in experiment [3] (setting [7]), 15 ± 3 µM; in experiment [3] (setting [8]), 50 ± 10 µM. Moreover, in experiment [5], the “Effect of inhibitor on the stability of the PARP2–DNA complex” value is “No statistically significant effect”. Also, the “Inhibition of dissociation of the PARP2 complex with DNA” value in experiment [6] (0.4 mM NAD+) is on record as ~ 2 fold; in experiment [6] (1.4 mM NAD+), ~ 1.5 fold.
